Measured values taken from ChEMBL document CHEMBL5053557, “Discovery of Novel Dual-Target Inhibitor of Bromodomain-Containing Protein 4/Casein Kinase 2 Inducing Apoptosis and Autophagy-Associated Cell Death for Triple-Negative Breast Cancer Therapy” (J Med Chem, 2021).
Active and inactive are the calls of the source. No cut-off for these calls is given here.

Assays:
[1] = target: T1, Bromodomain-containing protein 2 (Homo sapiens, UniProt P25440); assay: Inhibition of BRD2 BD1 (unknown origin) incubated for 2 hrs by TR-FRET assay
[2] = target: T1, Bromodomain-containing protein 2; assay: Inhibition of BRD2 BD2 (unknown origin) incubated for 2 hrs by TR-FRET assay
[3] = target: Bromodomain-containing protein 3 (Homo sapiens, UniProt Q15059); assay: Inhibition of BRD3 BD2 (unknown origin) incubated for 2 hrs by TR-FRET assay
[4] = target: T2, Bromodomain-containing protein 4 (Homo sapiens, UniProt O60885); assay: Inhibition of BRD4 BD2 (unknown origin) incubated for 2 hrs by TR-FRET assay
[5] = target: T2, Bromodomain-containing protein 4; assay: Inhibition of BRD4 BD1/BD2 (unknown origin) incubated for 2 hrs by TR-FRET assay
[6] = target: Bromodomain testis-specific protein (Homo sapiens, UniProt Q58F21); assay: Inhibition of BRDT BD1 (unknown origin) incubated for 2 hrs by TR-FRET assay
[7] = tested on: MCF-10A; assay: Antiproliferative activity against human MCF-10A cells incubated for 24 hrs by MTT assay; type: cell-based
[8] = tested on: MDA-MB-468; assay: Induction of apoptosis in human MDA-MB-468 cells after 24 hrs by Hoechst 33258 staining fluorescence microscopic analysis; type: functional, cell-based; conditions: dose 2.5-10 µM
[9] = tested on: MDA-MB-231; assay: Induction of apoptosis in human MDA-MB-231 cells assessed as down regulation of Bcl2 after 24 hrs by Western blot analysis; type: functional, cell-based; conditions: dose 2.5-10 µM
[10] = tested on: MDA-MB-231; assay: Induction of apoptosis in human MDA-MB-231 cells assessed as up regulation of Bax after 24 hrs by Western blot analysis; type: functional, cell-based; conditions: dose 2.5-10 µM
[11] = tested on: MDA-MB-231; assay: Induction of apoptosis in human MDA-MB-231 cells assessed as up regulation of cleaved caspase 3 after 24 hrs by Western blot analysis; type: functional, cell-based; conditions: dose 2.5-10 µM
[12] = tested on: MDA-MB-468; assay: Induction of apoptosis in human MDA-MB-468 cells assessed as down regulation of Bcl2 after 24 hrs by Western blot analysis; type: functional, cell-based; conditions: dose 2.5-10 µM
[13] = tested on: MDA-MB-468; assay: Induction of apoptosis in human MDA-MB-468 cells assessed as up regulation of Bax after 24 hrs by Western blot analysis; type: functional, cell-based; conditions: dose 2.5-10 µM
[14] = tested on: MDA-MB-468; assay: Induction of apoptosis in human MDA-MB-468 cells assessed as up regulation of cleaved caspase 3 after 24 hrs by Western blot analysis; type: functional, cell-based; conditions: dose 2.5-10 µM
[15] = tested on: MDA-MB-468; assay: Induction of autophagy in human MDA-MB-468 cells harboring GFP-mRFP-LC3 assessed as autophagic flux at 5 uM after 24 hrs by fluorescence microscopic analysis; type: functional, cell-based
[16] = tested on: MDA-MB-468; assay: Induction of autophagy in human MDA-MB-468 cells harboring GFP-mRFP-LC3 assessed as down regulation of p62 level at 5 uM after 24 hrs by Western blot analysis; type: functional, cell-based
[17] = tested on: MDA-MB-231; assay: Induction of autophagy in human MDA-MB-231 cells harboring GFP-mRFP-LC3 assessed as up regulation of beclin 1 level at 2.5 to 10 uM after 24 hrs by Western blot analysis; type: functional, cell-based; conditions: dose 2.5-10 µM
[18] = tested on: MDA-MB-231; assay: Induction of autophagy in human MDA-MB-231 cells harboring GFP-mRFP-LC3 assessed as up regulation of LC3II level at 2.5 to 10 uM after 24 hrs by Western blot analysis; type: functional, cell-based; conditions: dose 2.5-10 µM
[19] = tested on: MDA-MB-468; assay: Induction of autophagy in human MDA-MB-468 cells at 5 uM preincubated with 3-MA for 1 hr followed by compound addition and measured after 24 hrs by fluorescence microscopic analysis; type: functional, cell-based
[20] = tested on: MDA-MB-468; assay: Inhibition of colony formation in human MDA-MB-468 cells at 5 uM after 7 days in presence of 3-MA by crystal violet staining based assay; type: functional, cell-based; conditions: time 7.0 day
[21] = tested on: MDA-MB-468; assay: Induction of apoptosis in human MDA-MB-468 cells at 5 uM preincubated with 3-MA for 1 hr followed by compound addition and measured after 24 hrs by Annexin V-FITC/propidium iodide staining based flow cytometric analysis; type: functional, cell-based
[22] = Half life in Sprague-Dawley rat at 10 mg/kg, po by LC-MS analysis; type: ADME, organism-based; conditions: in vivo
[23] = Cmax in Sprague-Dawley rat at 1 mg/kg, iv by LC-MS analysis; type: ADME, organism-based; design: dose 1 mg/kg, route iv; conditions: in vivo
[24] = AUC(0 to t) in Sprague-Dawley rat at 10 mg/kg, po by LC-MS analysis; type: ADME, organism-based; design: dose 10 mg/kg, route po; conditions: in vivo
[25] = AUC(0 to infinity) in Sprague-Dawley rat at 10 mg/kg, po by LC-MS analysis; type: ADME, organism-based; design: time infinity, dose 10 mg/kg, route po; conditions: in vivo
[26] = Apparent volume of distribution in Sprague-Dawley rat at 1 mg/kg, iv by LC-MS analysis; type: ADME, organism-based; conditions: in vivo, read-out: Vz
[27] = Oral bioavailability in Sprague-Dawley rat at 10 mg/kg by LC-MS analysis; type: ADME, organism-based; conditions: in vivo
[28] = tested on: MDA-MB-231; assay: Antitumor activity against human MDA-MB-231 cells xenografted in po dosed nude BALB/c mouse assessed as tumor growth inhibition administered once daily for 19 days and measured every 3 days; type: functional, organism-based; conditions: dose lower […], dose upper 50.0 mg/kg, time 19.0 day
[29] = tested on: MDA-MB-468; assay: Antitumor activity against human MDA-MB-468 cells xenografted in po dosed nude BALB/c mouse assessed as tumor growth inhibition administered once daily for 19 days and measured every 3 days; type: functional, organism-based; conditions: dose lower […], dose upper 50.0 mg/kg, time 19.0 day
[30] = tested on: Mus musculus; assay: Toxicity in nude BALB/c mouse xenografted with human MDA-MB-231 cells assessed as change in body weight at 25 to 50 mg/kg, po administered once daily for 19 days and measured every 3 days; type: organism-based; conditions: in vivo, 456 h, dose 25-50 mg/kg, time 19 day
[31] = tested on: Mus musculus; assay: Toxicity in nude BALB/c mouse xenografted with human MDA-MB-468 cells assessed as change in body weight at 25 to 50 mg/kg, po administered once daily for 19 days and measured every 3 days; type: organism-based; conditions: in vivo, 456 h, dose 25-50 mg/kg, time 19 day
[32] = tested on: Mus musculus; assay: Toxicity in nude BALB/c mouse xenografted with human MDA-MB-468 cells assessed as morphological changes in spleen at 25 to 50 mg/kg, po administered once daily for 19 days and measured every 3 days by H and E staining based assay; type: organism-based; conditions: in vivo, 456 h, dose 25-50 mg/kg, time 19 day
[33] = tested on: Mus musculus; assay: Toxicity in nude BALB/c mouse xenografted with human MDA-MB-231 cells assessed as morphological changes in heart at 25 to 50 mg/kg, po administered once daily for 19 days and measured every 3 days by H and E staining based assay; type: organism-based; conditions: in vivo, 456 h, dose 25-50 mg/kg, time 19 day
[34] = tested on: Mus musculus; assay: Toxicity in nude BALB/c mouse xenografted with human MDA-MB-231 cells assessed as morphological changes in spleen at 25 to 50 mg/kg, po administered once daily for 19 days and measured every 3 days by H and E staining based assay; type: organism-based; conditions: in vivo, 456 h, dose 25-50 mg/kg, time 19 day
[35] = tested on: Mus musculus; assay: Toxicity in nude BALB/c mouse xenografted with human MDA-MB-231 cells assessed as morphological changes in kidney at 25 to 50 mg/kg, po administered once daily for 19 days and measured every 3 days by H and E staining based assay; type: organism-based; conditions: in vivo, 456 h, dose 25-50 mg/kg, time 19 day
[36] = tested on: MDA-MB-231; assay: Induction of autophagy in human MDA-MB-231 cells xenografted in nude BALB/c mouse assessed as increase in LC3II expression at 25 to 50 mg/kg, po administered once daily for 19 days by immunohistochemistry analysis; type: functional, organism-based; conditions: dose lower […], dose upper 50.0 mg/kg, time 19.0 day
[37] = target: Casein kinase II subunit alpha (Homo sapiens, UniProt P68400); assay: Inhibition of CK2 (unknown origin)
Chain of Casein kinase II subunit alpha (P68400 whole entry): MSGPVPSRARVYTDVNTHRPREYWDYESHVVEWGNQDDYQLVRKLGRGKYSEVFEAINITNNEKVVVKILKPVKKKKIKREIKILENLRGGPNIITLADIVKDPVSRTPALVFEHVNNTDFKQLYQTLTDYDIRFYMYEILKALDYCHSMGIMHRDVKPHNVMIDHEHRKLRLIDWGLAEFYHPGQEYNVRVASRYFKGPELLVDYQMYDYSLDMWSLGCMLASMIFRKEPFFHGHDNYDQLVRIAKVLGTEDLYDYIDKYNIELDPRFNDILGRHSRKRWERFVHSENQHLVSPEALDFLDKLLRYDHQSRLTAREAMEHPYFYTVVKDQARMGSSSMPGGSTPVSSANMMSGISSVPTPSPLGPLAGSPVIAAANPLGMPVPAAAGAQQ

T1 sequence (P25440 whole entry): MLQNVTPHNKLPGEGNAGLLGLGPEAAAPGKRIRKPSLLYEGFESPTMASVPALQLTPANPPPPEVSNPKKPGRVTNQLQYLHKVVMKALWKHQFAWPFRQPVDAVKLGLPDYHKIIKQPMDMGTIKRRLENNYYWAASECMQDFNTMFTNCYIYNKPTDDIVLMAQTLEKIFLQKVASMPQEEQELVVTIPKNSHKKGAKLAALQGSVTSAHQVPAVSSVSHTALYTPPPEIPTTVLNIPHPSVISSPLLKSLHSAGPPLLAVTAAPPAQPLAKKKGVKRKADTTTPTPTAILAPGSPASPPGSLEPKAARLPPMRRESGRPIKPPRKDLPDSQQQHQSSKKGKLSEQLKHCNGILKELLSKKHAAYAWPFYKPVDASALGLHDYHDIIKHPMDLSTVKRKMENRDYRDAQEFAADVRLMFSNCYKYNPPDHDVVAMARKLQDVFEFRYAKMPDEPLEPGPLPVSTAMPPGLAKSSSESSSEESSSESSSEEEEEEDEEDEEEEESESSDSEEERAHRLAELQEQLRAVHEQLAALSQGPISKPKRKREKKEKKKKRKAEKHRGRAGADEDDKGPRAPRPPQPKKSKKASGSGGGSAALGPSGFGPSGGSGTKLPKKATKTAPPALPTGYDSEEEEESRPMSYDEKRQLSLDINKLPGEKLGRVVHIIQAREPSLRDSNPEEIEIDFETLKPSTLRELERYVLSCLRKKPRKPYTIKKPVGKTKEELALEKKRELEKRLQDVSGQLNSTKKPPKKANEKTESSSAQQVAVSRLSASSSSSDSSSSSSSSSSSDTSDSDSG
Chain of Bromodomain-containing protein 3 (Q15059 whole entry): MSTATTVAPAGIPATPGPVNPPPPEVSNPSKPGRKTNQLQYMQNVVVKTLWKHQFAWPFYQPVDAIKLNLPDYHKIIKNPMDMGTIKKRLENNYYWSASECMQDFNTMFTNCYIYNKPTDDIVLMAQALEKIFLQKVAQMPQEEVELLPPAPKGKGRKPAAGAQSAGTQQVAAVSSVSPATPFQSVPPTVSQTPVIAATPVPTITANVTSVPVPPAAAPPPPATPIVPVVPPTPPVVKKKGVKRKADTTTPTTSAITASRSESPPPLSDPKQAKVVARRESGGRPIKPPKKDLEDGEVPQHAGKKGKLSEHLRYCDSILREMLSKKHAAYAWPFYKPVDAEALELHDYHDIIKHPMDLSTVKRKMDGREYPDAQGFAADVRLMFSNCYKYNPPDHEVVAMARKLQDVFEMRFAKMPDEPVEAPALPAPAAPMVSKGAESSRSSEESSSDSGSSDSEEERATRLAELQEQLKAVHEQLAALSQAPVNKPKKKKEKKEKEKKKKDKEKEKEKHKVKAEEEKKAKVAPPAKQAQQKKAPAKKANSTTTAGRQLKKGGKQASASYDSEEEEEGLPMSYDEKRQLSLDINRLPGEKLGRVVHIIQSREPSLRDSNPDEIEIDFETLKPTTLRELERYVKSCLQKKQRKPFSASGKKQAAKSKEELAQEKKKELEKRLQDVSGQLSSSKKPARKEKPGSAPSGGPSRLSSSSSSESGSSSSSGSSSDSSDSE

## COc1cc(OC)c2c(=O)[nH]c(-c3ccc(OCC(=O)Nc4ccc(N5CCN(C)CC5)c(Cl)c4)cc3)nc2c1
[1]
  IC50: > 10 µM
[2]
  IC50: 8.7 µM
[3]
  IC50: > 10 µM
[4]
  IC50: 98 nM
[5]
  IC50: 180 nM
[6]
  IC50: > 10 µM
[7]
  Activity: Non-Toxic
[8]
  Activity: Dose-dependent effect
[9]
  Activity: Dose-dependent effect
[10]
  Activity: Dose-dependent effect
[11]
  Activity: Dose-dependent effect
[12]
  Activity: Dose-dependent effect
[13]
  Activity: Dose-dependent effect
[14]
  Activity: Dose-dependent effect
[15]
  Activity: Active
[16]
  Activity: Active
[17]
  Activity: Active
[18]
  Activity: Active
[19]
  Activity: inactive
[20]
  inhibition: inactive
[21]
  Activity: inactive
[22]
  half-life: 310 min
[23]
  Cmax: 237 ng/mL
[24]
  AUC(0-t): 2080 ng·h/mL
[25]
  AUC(0-inf): 2090 ng·h/mL
[26]
  Vd: 21.1 L/kg
[27]
  F: 32.5%
[28]
  Activity: Active
[29]
  Activity: Active
[30]
  Activity: Non-Toxic
[31]
  Activity: Non-Toxic
[32]
  Activity: Non-Toxic
[33]
  Activity: Non-Toxic
[34]
  Activity: Non-Toxic
[35]
  Activity: Non-Toxic
[36]
  Activity: Active
[37]
  IC50: 230 nM
